Several values for one entry are separate records, joined by “and”; a condition that tells them apart may be missing. Equal entries are not always repeated.
Key:
[1] = tested on: STING protein; IRF/IFN signaling in THP-1 R232 cells; assay: Cell based reporter assay, THP-1 R232 IRF-luc; settings: Homo sapiens, THP1-dual-KI R232 cells, IRF luciferase reporter; for Emax: maximum measured activity, read-out: THP 1-dual-KI R232_IRF(Luciferase)_Activity Maximum measured (%); for IC50: read-out: THP 1-dual-KI R232_IRF(Luciferase) IC50
Excerpt: Cell reporter assays were developed to measure the ability of compounds of the application to activate the STING protein and activate both IRF/IFN and the NFkB signaling pathways in the myeloid derived cell line THP-1, which is commercially available from several suppliers. Briefly, THP-1 monocytes were transfected and selected for stable integration of 2 reporter constructs. Clones incorporating stably integrated vectors were further selected by antibiotic resistance to blastocidin and zeocin. The reporter constructs included: (1) firefly luciferase reporter gene under the control of an ISG54 promoter fused to five interferon (IFN)-stimulated response elements to measure IRF transcription factor binding activity and (2) secreted embryonic alkaline phosphatase reporter gene under transcription control of an IFN-beta minimal promoter fused to 5 copies of the NFkB consensus transcriptional response element and 3 copies of the c-Rel binding site.
The resulting THP-1 cell line was further modified to incorporate 3 amino acid point mutations (H71R A230G Q293R). This modification of the native TMEM173 gene in THP-1 cells (HAQ) was designed to produce a cell reporter that expressed the most common allelic variant in the human population (THP-1 R232, available from InvivoGen). Alternatively, the TMEM173 gene was knocked out to provide a congenic control to counter-screen for compound activation that was independent of the STING protein (THP-1 STING KO).
Once cell lines were established, reporter assay protocols were developed and optimized to screen small molecule compounds for agonist activity. Assay optimization for efficacy and Z′ value included titration of the following parameters:
• 1. Cell pre-activation with PMA • 2. Cell seeding density • 3. DMSO tolerance • 4. Media selection • 5. FBS concentration • 6. Incubation time • 7. Co-Assessment of cell viability by CTG assay • 8. Appropriate HPE and ZPE controls • 9. Dose Response Titration
• 1. No pre-activation with PMA • 2. 5×10^4 cells/well in 96 well plate format • 3. <0.5% DMSO • 4. RPMI 1640+2.5 mg/ml glucose • 5. 10% FBS • 6. 14-18 hr incubation • 7. Cell Titer Glo reagent (Promega) following supernatant removal • 8. […] 8 point, 2 fold, duplicate starting at 150 μM

[2] = biological target: human STING protein (140-379), WT (Homo sapiens, UniProt Q86WV6, H232R); assay: Radiometric filtration binding competition assay (FBA), hSTING-WT; settings: WT-hSWAT IC50 (μM), WT_FBA_HIS-SUMO-hSWAT; wild-type human STING; competition with [H3] 2′3′cGAMP
Sequence of human STING protein (140-379), WT (Q86WV6 140-379 H232R): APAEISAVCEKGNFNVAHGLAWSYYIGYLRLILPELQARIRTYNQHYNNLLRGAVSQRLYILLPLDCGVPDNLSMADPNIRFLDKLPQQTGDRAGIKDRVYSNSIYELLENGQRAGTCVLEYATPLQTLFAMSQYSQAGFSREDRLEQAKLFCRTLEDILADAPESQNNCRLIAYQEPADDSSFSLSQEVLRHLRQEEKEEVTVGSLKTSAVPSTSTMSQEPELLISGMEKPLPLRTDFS

hSTING-R232 (aa140-379) = hSTING-R232 (aa140-379) (Homo sapiens, UniProt Q86WV6, H232R); assay: STING differential scanning fluorimetry (DSF) assay, hSTING WT; settings: shift in melting temperature apo vs ligand-bound
Sequence of hSTING-R232 (aa140-379) (Q86WV6 140-379 H232R): as above
Procedure: A STING DSF assay was performed to determine protein thermostability shift in response to small molecule ligand binding. A STING thermnostability shift assay based on differential scanning fluorimetry was used to measure (1) the net shift in melting temperature (ΔTm) between the apo and ligand-bound states of the STING protein and (2) the concentration of the thermal denaturation transition (EC50) as a surrogate measure of binding affinity (Kd). […] Protein in assay buffer was transferred to a 384 well plate and incubated with the hydrophobic fluorescent dye SYBR Orange. A temperature ramp was applied to the plate and the resulting dye fluorescence was plotted as a function of temperature. The first derivative of this function (dF/dT) was then used to extrapolate the melting temperature of the protein at various concentrations of compound and determine the thermal denaturation profile of a protein/compound complex.
5 μM purified Target STING Protein • 3. 8 μM Sypro Orange Dye • 4. Buffer: 100 mM NaCl, 30 mM HEPES, pH 7.5 • 5. Thermal Ramp: 0.5° C./min • 6. <1% DMSO • 7. 11 point, 2 fold dilution, duplicate, 300 μM high concentrations • 8.

Compound | IC50 [1] | IC50 [2] | WT_DSF_hSWAT Tm Shift (° C.) (hSTING-R232 (aa140-379)) | Emax [1]
CN(C)c1c(Cl)ccc2c(=O)c3ccc(C4=CCN(C(=O)OC(C)(C)C)C4)cc3n(CC(=O)O)c12 [Compound 25] | < 50 µM | < 20 µM | D (“D” >7° C.) | > 50%
CN(C)c1c(Cl)ccc2c(=O)c3cc(-c4ccccc4)ccc3n(CC(=O)O)c12 [Compound 30] | < 50 µM | < 20 µM | D (“D” >7° C.) | 25 to 50%
Cc1ccc2c(=O)c3ccc(C(C)(C)C)cc3n(CC(=O)O)c2c1N(C)C [Compound 39] | < 50 µM | < 20 µM | D (“D” >7° C.) | > 50%
Cc1ccc2c(=O)c3ccc(Cl)c(C(C)C)c3n(CC(=O)O)c2c1 [Compound 46] | > 150 µM | > 300 µM | D (“D” >7° C.) | 5 to 25%
C=C(C)c1c(Cl)ccc2c(=O)c3ccc(C)cc3n(CC(=O)O)c12 [Compound 47] | < 50 µM | < 20 µM | D (“D” >7° C.) | > 50%
Cc1ccc2c(=O)c3c(O)cc(Cl)c(N(C)C)c3n(CC(=O)O)c2c1 [Compound 51] | 100 to 150 µM | 20 to 100 µM | D (“D” >7° C.) | > 50%
COc1c(Cl)ccc2c(=O)c3ccc(C4=CCN(C)CC4)cc3n(CC(=O)O)c12 [Compound 54] | > 150 µM | > 300 µM | C (“C” = 2-7° C.) | 5 to 25%
Cc1ccc2c(=O)c3ccc(Cl)c(N(C)C)c3n(CC(=O)NS(C)(=O)=O)c2c1 [Compound 55] | < 50 µM | 20 to 100 µM | D (“D” >7° C.) | > 50%
CN(C)c1c(Cl)ccc2c(=O)c3ccc(-c4ccco4)cc3n(CC(=O)NS(C)(=O)=O)c12 [Compound 56] | > 150 µM | < 20 µM | D (“D” >7° C.) | –
COCCOc1cccc2c(=O)c3ccc(Cl)c(OC)c3n(CC(=O)O)c12 [Compound 60] | > 150 µM | > 300 µM | B (“B” = 0-2° C.) | 5 to 25%
COc1c(Cl)ccc2c(=O)c3cccc(OCCO)c3n(CC(=O)O)c12 [Compound 61] | > 150 µM | > 300 µM | B (“B” = 0-2° C.) | 5 to 25%
O=C(O)Cn1c2ccccc2c(=O)c2ccc(Cl)c(O)c21 [Compound 63] | > 150 µM | 20 to 100 µM | B (“B” = 0-2° C.) | < 5%
C=C(C)c1ccc2c(=O)c3ccc(Cl)c(OC)c3n(CC(=O)O)c2c1 [Compound 65] | < 50 µM | 20 to 100 µM | D (“D” >7° C.) | > 50%
COc1c(Cl)ccc2c(=O)c3ccc(F)cc3n(CC(=O)O)c12 [Compound 67] | > 150 µM | > 300 µM | C (“C” = 2-7° C.) | –
CCNc1ccc2c(=O)c3ccc(Cl)c(OC)c3n(CC(=O)O)c2c1 [Compound 68] | 50 to 100 µM | 20 to 100 µM | C (“C” = 2-7° C.) | > 50%
CN(C)c1c(Cl)ccc2c(=O)c3ccc(-c4cc[nH]c(=O)c4)cc3n(CC(=O)O)c12 [Compound 69] | < 50 µM | < 20 µM | D (“D” >7° C.) | > 50%
CN(C)c1c(Cl)ccc2c(=O)c3cc(Cl)c(Nc4c(F)cccc4F)cc3n(CC(=O)O)c12 [Compound 75] | < 50 µM | < 20 µM | D (“D” >7° C.) | > 50%
CN(C)c1c(Cl)ccc2c1N(CC(=O)O)c1cc(Nc3ccccc3F)ccc1N2C [Compound 78] | < 50 µM | < 20 µM | D (“D” >7° C.) | > 50%
CN(C)c1c(Cl)ccc2c(=O)c3ccc(Nc4cccnc4)cc3n(CC(=O)O)c12 [Compound 80] | < 50 µM | < 20 µM | D (“D” >7° C.) | > 50%
CN(C)c1c(Cl)ccc2c(=O)c3ccc(Nc4ccncc4)cc3n(CC(=O)O)c12 [Compound 81] | < 50 µM | < 20 µM | D (“D” >7° C.) | > 50%
CC(C)Nc1cc2c(cc1Cl)c(=O)c1ccc(Cl)c(N(C)C)c1n2CC(=O)O [Compound 86] | < 50 µM | < 20 µM | D (“D” >7° C.) | > 50%
CN(C)c1c(Cl)ccc2c(=O)c3cc(Cl)c(C(C)(C)C#N)cc3n(CC(=O)O)c12 [Compound 87] | < 50 µM | < 20 µM | D (“D” >7° C.) | > 50%
CN(C)c1c(Cl)ccc2c(=O)c3cc(Cl)c(C(C)(C)C)cc3n(CC(=O)O)c12 [Compound 88] | < 50 µM | < 20 µM | D (“D” >7° C.) | > 50%
C=Cc1cc2c(cc1Cl)c(=O)c1ccc(Cl)c(N(C)C)c1n2CC(=O)O [Compound 89] | < 50 µM | < 20 µM | D (“D” >7° C.) | > 50%

Further lines, with some results ahead:

IC50 [1] | IC50 [2] | WT_DSF_hSWAT Tm Shift (° C.) (hSTING-R232 (aa140-379)) | Compound | Emax [1]
< 50 µM | < 20 µM | D (“D” >7° C.) | C=C(C)c1ccc2c(=O)c3ccc(Cl)c(N(C)C)c3n(CC(=O)O)c2c1 [Compound 24] | > 50%
< 50 µM | > 300 µM | B (“B” = 0-2° C.) | CN(C)c1c(Cl)ccc2c(=O)c3cc(Br)ccc3n(CC(=O)O)c12 [Compound 29] | > 50%
50 to 100 µM | 100 to 300 µM and 20 to 100 µM | C (“C” = 2-7° C.) | Cc1ccc2c(c1)c(=O)c1ccc(Cl)c(N(C)C)c1n2CC(=O)O [Compound 31] | > 50%
< 50 µM | 20 to 100 µM | C (“C” = 2-7° C.) | Cc1cc2c(cc1Br)c(=O)c1ccc(Cl)c(N(C)C)c1n2CC(=O)O [Compound 34] | 5 to 25%
< 50 µM | < 20 µM | D (“D” >7° C.) | CN(C)c1c(Cl)ccc2c(=O)c3ccc(C4CCC4)cc3n(CC(=O)O)c12 [Compound 35] | > 50%
< 50 µM | < 20 µM | D (“D” >7° C.) | CN(C)c1c(Cl)ccc2c(=O)c3ccc(C4CC4)cc3n(CC(=O)O)c12 [Compound 36] | > 50%
< 50 µM | < 20 µM | D (“D” >7° C.) | CCc1ccc2c(=O)c3ccc(Cl)c(N(C)C)c3n(CC(=O)O)c2c1 [Compound 37] | > 50%
< 50 µM | < 20 µM | D (“D” >7° C.) | CN(C)c1c(Cl)ccc2c(=O)c3ccc(C(C)(C)C#N)cc3n(CC(=O)O)c12 [Compound 52] | > 50%
> 150 µM | 100 to 300 µM | C (“C” = 2-7° C.) | COc1c(Cl)ccc2c(=O)c3ccc(C4CCN(C)CC4)cc3n(CC(=O)O)c12 [Compound 53] | 5 to 25%
< 50 µM | < 20 µM | D (“D” >7° C.) | CC(C)c1ccc2c(=O)c3ccc(Cl)c(N(C)C)c3n(CC(=O)O)c2c1 [Compound 58] | > 50%
< 50 µM | < 20 µM | C (“C” = 2-7° C.) | CN(C)c1c(Cl)ccc2c(=O)c3ccc(-c4cnccn4)cc3n(CC(=O)O)c12 [Compound 70] | > 50%
< 50 µM | 20 to 100 µM | D (“D” >7° C.) | CN(C)c1c(Cl)ccc2c(=O)c3ccc(-c4ccnnc4)cc3n(CC(=O)O)c12 [Compound 71] | > 50%
< 50 µM | 20 to 100 µM | D (“D” >7° C.) | CN(C)c1c(Cl)ccc2c(=O)c3ccc(C4(C#N)CC4)cc3n(CC(=O)O)c12 [Compound 84] | > 50%
